The source made the active and inactive calls. The rule behind the calls is not given here.
How the values were obtained:
[1] = biological target: Tyrosine-protein kinase CSK (Homo sapiens, UniProt P41240); experiment: Inhibition of CSK ACT labeling site harbouring VSDFGLTKEASSTQDTGK in human Huh-7 cell lysate at 1 uM by KiNativ Profiling analysis relative to control; type: subcellular
[2] = biological target: Ribosomal protein S6 kinase beta-2 (Homo sapiens) (UniProt Q9UBS0); experiment: Inhibition of p70S6Kb Lys2 labeling site in human Huh-7 cell lysate at 1 uM by KiNativ Profiling analysis relative to control; type: subcellular
[3] = biological target: Phosphatidylinositol 4-kinase beta (Homo sapiens) (UniProt Q9UBF8); experiment: Inhibition of PI4KB ATP labeling site harbouring VPHTQAVVLNSKDKAPYLIYVEVLECENFDTTSVPAR in human Huh-7 cell lysate at 1 uM by KiNativ Profiling analysis relative to control; type: subcellular
[4] = biological target: Serine/threonine-protein kinase SIK1 (Homo sapiens) (UniProt P57059); experiment: Inhibition of SIK Lys2 labeling site in human Huh-7 cell lysate at 1 uM by KiNativ Profiling analysis relative to control; type: subcellular
[5] = biological target: Microtubule-associated serine/threonine-protein kinase 3 (Homo sapiens) (UniProt O60307); experiment: Inhibition of MAST3 Lys2 labeling site in human Huh-7 cells at 1 uM by KiNativ Profiling analysis relative to control; type: cell-based
Microtubule-associated serine/threonine-protein kinase 3 (Homo sapiens), sequence (O60307 whole entry): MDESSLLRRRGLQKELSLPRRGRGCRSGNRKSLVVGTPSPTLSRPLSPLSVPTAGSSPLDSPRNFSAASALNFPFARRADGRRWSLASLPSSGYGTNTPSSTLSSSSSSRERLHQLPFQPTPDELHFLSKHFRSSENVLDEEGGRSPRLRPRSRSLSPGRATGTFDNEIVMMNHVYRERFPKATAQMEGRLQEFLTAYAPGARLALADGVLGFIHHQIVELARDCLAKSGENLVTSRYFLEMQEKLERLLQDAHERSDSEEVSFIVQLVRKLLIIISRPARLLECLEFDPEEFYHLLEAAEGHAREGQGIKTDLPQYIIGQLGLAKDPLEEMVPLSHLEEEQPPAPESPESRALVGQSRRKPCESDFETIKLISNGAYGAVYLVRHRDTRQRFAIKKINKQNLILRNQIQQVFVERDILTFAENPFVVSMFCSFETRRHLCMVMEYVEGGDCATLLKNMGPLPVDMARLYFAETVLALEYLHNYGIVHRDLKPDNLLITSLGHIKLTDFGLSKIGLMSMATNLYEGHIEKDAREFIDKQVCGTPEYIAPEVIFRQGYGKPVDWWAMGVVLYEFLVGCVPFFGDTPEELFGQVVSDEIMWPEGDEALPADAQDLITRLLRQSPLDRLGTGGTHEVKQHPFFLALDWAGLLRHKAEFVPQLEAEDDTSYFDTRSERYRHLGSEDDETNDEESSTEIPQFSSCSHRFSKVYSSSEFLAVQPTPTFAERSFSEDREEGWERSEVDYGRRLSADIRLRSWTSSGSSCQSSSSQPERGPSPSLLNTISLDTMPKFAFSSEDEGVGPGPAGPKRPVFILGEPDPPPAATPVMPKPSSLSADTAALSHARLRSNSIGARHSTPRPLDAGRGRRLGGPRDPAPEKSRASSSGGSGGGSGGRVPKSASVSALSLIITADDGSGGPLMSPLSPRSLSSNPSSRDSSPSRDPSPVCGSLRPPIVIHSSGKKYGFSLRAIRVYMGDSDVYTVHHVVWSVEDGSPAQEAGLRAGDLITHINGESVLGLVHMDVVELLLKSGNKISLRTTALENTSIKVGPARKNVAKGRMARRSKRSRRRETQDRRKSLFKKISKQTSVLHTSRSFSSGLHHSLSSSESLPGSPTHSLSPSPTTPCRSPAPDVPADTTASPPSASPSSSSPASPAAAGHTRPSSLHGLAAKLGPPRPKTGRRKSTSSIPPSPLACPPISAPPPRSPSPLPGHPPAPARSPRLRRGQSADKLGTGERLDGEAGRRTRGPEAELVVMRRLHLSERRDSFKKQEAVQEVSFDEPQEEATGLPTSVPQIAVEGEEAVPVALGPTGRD

[6] = biological target: Serine/threonine-protein kinase 16 (Homo sapiens) (UniProt O75716); experiment: Inhibition of MPSK1 Lys2 labeling site in human Huh-7 cells at 1 uM by KiNativ Profiling analysis relative to control; type: cell-based
Serine/threonine-protein kinase 16 (Homo sapiens), sequence (O75716 whole entry, the tested form may be a part): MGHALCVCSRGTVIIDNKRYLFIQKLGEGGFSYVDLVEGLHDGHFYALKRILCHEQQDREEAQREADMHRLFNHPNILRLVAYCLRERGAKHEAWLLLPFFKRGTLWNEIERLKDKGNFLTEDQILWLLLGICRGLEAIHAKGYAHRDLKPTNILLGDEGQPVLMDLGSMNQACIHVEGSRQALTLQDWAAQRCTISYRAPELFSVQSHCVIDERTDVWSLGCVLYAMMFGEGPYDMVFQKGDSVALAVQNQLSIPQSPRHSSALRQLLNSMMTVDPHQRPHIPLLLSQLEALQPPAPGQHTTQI

[7] = biological target: Ribosomal protein S6 kinase alpha-3 (Homo sapiens) (UniProt P51812); experiment: Inhibition of RSK2 domain2 Lys2 labeling site harbouring TVEYLHAQGVVHRDLKPSNILYVDESGNPESIR in human Huh-7 cells at 1 uM by KiNativ Profiling analysis relative to control; type: cell-based
[8] = biological target: Serine/threonine-protein kinase 26 (Homo sapiens) (UniProt Q9P289); experiment: Inhibition of MST4 (unknown origin) at 10 uM by Ambit Kinomescan binding assay
Serine/threonine-protein kinase 26 (Homo sapiens), sequence (Q9P289 2-416 limits assumed): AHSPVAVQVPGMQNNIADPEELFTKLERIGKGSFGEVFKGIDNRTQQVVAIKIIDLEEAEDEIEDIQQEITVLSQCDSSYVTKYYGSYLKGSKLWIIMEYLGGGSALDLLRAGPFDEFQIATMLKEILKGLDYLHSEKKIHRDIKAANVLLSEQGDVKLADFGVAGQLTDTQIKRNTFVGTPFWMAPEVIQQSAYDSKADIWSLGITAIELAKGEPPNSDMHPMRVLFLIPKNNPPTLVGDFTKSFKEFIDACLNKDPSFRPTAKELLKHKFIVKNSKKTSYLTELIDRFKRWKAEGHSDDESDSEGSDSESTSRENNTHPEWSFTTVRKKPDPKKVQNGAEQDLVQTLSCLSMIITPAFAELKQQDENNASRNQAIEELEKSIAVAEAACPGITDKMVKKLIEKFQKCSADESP

[9] = biological target: Serine/threonine-protein kinase PAK 2 (Homo sapiens) (UniProt Q13177); experiment: Inhibition of PAK2 (unknown origin) at 10 uM by Ambit Kinomescan binding assay
[10] = biological target: Phosphatidylinositol 4,5-bisphosphate 3-kinase catalytic subunit beta isoform (Homo sapiens) (UniProt P42338); experiment: Inhibition of PIK3CB (unknown origin) at 10 uM by Ambit Kinomescan binding assay
Phosphatidylinositol 4,5-bisphosphate 3-kinase catalytic subunit beta isoform (Homo sapiens), sequence (P42338 whole entry, looked up, canonical isoform): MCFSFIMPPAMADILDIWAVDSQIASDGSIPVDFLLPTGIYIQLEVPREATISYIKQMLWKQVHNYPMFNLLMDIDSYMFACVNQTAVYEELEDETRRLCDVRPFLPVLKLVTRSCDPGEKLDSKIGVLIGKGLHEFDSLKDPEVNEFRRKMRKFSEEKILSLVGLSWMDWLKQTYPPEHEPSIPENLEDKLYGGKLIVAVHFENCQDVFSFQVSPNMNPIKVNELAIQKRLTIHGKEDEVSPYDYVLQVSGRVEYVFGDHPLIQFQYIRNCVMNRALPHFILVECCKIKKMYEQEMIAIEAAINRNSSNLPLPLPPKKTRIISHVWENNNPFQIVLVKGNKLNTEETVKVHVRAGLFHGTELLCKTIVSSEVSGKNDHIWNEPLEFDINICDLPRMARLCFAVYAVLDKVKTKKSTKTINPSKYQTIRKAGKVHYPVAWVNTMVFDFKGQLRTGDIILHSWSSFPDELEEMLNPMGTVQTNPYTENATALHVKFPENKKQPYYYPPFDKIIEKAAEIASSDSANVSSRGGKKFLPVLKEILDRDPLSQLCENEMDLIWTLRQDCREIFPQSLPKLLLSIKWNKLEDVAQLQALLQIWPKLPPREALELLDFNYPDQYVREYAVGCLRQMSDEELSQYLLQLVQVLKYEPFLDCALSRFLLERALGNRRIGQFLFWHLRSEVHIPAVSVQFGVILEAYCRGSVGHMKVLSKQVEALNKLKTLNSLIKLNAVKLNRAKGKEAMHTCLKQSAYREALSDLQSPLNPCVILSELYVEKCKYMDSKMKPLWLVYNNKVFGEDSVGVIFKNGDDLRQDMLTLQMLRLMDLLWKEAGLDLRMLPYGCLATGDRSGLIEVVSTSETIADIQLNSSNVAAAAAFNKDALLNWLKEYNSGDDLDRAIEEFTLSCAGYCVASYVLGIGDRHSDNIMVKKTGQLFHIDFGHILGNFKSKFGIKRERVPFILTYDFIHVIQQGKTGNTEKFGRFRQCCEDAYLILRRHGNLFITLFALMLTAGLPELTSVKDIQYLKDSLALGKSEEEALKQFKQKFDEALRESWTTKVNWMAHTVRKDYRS

[11] = biological target: Epidermal growth factor receptor (Homo sapiens) (UniProt P00533); experiment: Inhibition of EGFR Lys1 labeling site in human A-375 cells at 5 uM by KiNativ Profiling analysis relative to control; type: cell-based
[12] = biological target: T1, EKC/KEOPS complex subunit TP53RK (Homo sapiens) (UniProt Q96S44); experiment: Inhibition of PRPK ATP Loop labeling site in human A-375 cells at 5 uM by KiNativ Profiling analysis relative to control; type: cell-based
T1 sequence (whole entry): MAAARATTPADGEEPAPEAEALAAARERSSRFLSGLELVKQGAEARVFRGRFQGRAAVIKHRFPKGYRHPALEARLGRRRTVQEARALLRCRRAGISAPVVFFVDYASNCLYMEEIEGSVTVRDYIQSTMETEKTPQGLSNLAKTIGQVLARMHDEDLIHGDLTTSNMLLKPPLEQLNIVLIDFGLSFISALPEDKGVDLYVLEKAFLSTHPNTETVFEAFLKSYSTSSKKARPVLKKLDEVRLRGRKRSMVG

[13] = biological target: Calcium/calmodulin-dependent protein kinase type 1 (Homo sapiens) (UniProt Q14012); experiment: Inhibition of CaMK1a K1 labeling site in human Huh-7 cells at 1 uM by KiNativ Profiling analysis relative to control; type: cell-based
Calcium/calmodulin-dependent protein kinase type 1 (Homo sapiens), sequence (Q14012 whole entry, looked up): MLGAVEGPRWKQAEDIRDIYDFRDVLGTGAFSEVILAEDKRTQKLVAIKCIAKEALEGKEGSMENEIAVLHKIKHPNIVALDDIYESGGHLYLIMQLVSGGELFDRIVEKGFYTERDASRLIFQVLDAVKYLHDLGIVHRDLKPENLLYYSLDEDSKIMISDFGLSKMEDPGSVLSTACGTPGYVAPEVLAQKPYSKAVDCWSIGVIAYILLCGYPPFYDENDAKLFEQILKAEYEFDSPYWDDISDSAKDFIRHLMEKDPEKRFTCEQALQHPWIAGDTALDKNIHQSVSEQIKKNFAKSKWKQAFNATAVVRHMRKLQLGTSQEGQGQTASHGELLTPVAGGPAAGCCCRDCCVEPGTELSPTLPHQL

[14] = biological target: Cyclin-dependent kinase 8/19 (Homo sapiens) (UniProt P49336+Q9BWU1); experiment: Inhibition of CDK8/11 K2 labeling site in human Huh-7 cells at 1 uM by KiNativ Profiling analysis relative to control; type: cell-based
Cyclin-dependent kinase 8/19 (Homo sapiens), sequence (P49336 whole entry, looked up): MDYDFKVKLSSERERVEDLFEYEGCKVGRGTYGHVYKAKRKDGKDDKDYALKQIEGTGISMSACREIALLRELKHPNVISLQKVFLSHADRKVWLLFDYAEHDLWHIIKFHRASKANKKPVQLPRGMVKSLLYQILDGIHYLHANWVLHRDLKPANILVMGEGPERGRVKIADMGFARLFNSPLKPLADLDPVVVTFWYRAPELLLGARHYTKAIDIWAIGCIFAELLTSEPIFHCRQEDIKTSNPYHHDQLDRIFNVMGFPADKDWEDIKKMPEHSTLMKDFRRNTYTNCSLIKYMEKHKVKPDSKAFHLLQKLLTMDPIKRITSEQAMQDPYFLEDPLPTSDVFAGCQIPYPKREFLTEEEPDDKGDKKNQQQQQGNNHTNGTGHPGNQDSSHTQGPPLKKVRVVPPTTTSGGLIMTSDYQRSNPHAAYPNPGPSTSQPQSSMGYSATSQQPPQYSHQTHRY
Cyclin-dependent kinase 8/19 (Homo sapiens), sequence (Q9BWU1 whole entry, looked up): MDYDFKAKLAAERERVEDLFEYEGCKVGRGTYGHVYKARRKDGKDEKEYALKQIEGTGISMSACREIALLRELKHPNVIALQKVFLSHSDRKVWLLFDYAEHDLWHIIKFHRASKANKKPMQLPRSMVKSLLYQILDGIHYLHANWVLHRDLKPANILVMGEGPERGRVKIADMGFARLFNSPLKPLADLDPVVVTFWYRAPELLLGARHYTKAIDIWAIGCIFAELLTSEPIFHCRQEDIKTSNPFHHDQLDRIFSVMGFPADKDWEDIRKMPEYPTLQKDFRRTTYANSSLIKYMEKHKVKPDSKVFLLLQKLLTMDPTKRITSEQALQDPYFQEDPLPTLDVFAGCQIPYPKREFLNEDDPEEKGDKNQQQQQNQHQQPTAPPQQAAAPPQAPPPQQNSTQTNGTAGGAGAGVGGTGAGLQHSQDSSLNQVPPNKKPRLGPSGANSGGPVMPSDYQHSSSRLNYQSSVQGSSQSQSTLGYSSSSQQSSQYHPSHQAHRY

[15] = biological target: T2, Serine/threonine-protein kinase NLK (Homo sapiens) (UniProt Q9UBE8); experiment: Inhibition of NLK (unknown origin) at 10 uM by Ambit Kinomescan binding assay relative to control; values are per cent of control
T2 sequence (whole entry): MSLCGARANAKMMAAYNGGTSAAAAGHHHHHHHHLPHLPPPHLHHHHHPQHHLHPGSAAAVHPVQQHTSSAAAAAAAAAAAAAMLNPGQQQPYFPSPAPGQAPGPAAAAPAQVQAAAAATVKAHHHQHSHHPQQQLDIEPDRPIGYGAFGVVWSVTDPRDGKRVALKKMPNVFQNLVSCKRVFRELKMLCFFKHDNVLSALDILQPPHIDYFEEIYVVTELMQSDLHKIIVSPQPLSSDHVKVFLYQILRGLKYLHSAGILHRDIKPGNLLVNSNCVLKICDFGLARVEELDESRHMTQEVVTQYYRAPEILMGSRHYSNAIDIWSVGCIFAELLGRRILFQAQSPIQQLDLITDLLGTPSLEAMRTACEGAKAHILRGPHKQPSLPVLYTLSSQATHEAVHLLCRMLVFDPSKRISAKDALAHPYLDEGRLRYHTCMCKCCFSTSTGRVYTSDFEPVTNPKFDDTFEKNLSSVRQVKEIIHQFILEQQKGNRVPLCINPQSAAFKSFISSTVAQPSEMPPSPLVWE

[16] = biological target: Mitogen-activated protein kinase 14 (Homo sapiens, UniProt Q16539); experiment: Inhibition of p38alpha (unknown origin) at 10 uM by Ambit Kinomescan binding assay relative to control; values are per cent of control
Mitogen-activated protein kinase 14, sequence (Q16539 whole entry): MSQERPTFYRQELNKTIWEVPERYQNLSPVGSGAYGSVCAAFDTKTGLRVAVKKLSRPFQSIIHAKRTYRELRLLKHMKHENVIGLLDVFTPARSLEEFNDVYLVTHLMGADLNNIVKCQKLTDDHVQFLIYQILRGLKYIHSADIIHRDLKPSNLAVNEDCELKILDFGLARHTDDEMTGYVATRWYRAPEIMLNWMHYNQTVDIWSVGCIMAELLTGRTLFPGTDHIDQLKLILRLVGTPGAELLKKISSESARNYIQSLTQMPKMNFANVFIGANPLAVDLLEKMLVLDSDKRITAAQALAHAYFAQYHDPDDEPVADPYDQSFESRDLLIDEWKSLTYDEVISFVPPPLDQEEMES

[17] = biological target: 5'-AMP-activated protein kinase catalytic subunit alpha-1 (Homo sapiens) (UniProt Q13131); experiment: Inhibition of AMPKa1 Lys2 labeling site in human A-375 cells at 0.05 uM by KiNativ Profiling analysis relative to control; type: cell-based
[18] = biological target: Serine/threonine-protein kinase 10 (Homo sapiens) (UniProt O94804); experiment: Inhibition of LOK (unknown origin) at 1 uM by Ambit Kinomescan binding assay relative to control; values are per cent of control
[19] = test system: Receptor-type tyrosine-protein kinase FLT3 (Homo sapiens), P36888 [UNDEFINED MUTATION]; experiment: Inhibition of FLT3 ITD mutant (unknown origin) at 1 uM by Ambit Kinomescan binding assay relative to control; values are per cent of control

Q: `CNc1cc(Oc2cc(C(=O)Nc3cc(N4CCN(C)CC4)cc(C(F)(F)F)c3)ccc2C)ncn1` was tested. Which inhibition [1] did it give?
A: Its inhibition is 7.9%.

Q: What about the inhibition [2] of the same compound?
A: Its inhibition is -8.4%.

Q: And the inhibition [3]?
A: Its inhibition is -1%.

Q: What about the inhibition [4] of the same compound?
A: Its inhibition is -1.3%.

Q: And the inhibition [5]?
A: Its inhibition is 14.9%.

Q: What about the inhibition [6] of the same compound?
A: The inhibition was 33.2%.

Q: What about the inhibition [7] of the same compound?
A: Its inhibition is 11.5%.

Q: Which results are given for `CCN1CCN(Cc2ccc(NC(=O)c3ccc(C)c(Oc4ccnc5[nH]ccc45)c3)cc2C(F)(F)F)CC1`?
A: inhibition [8]: inactive; inhibition [9]: inactive; inhibition [10]: inactive; inhibition [11]: -1.5%; inhibition [12]: 8%; inhibition [13]: 19%; inhibition [14]: -4.7%; percent of control [15]: 14%; percent of control [16]: 0%

Q: Which inhibition [17] does the source give for `CCN1CCN(Cc2ccc(NC(=O)c3ccc(C)c(/C=C/c4cnc5[nH]ccc5c4OC)c3)cc2C(F)(F)F)CC1` here?
A: Its inhibition is 7.3%.

Q: And the percent of control [18]?
A: The percent of control was 0%.

Q: And the residual activity [19]?
A: The residual activity was 1.4%.

Reference: ChEMBL document CHEMBL5696442, “Discovery of type II inhibitors of TGFβ-activated kinase 1 (TAK1) and mitogen-activated protein kinase kinase kinase kinase 2 (MAP4K2)” (J Med Chem, 2015)
